Values quoted from earlier work, collected in patent US20200397720A1, “METHOD AND FORMULATION FOR TREATMENT OF WOUNDS BY NEW TISSUE REGENERATION WITH REDUCED TRAUMA AND SCAR TISSUE FORMATION” (priority 2019, published 2020).

Test system: inflammatory cytokines, including IL-6 and TNF-α
Conditions: high fat diet-induced atherosclerosis in rabbits

CC1=C(/C=C/C(C)=C/C=C/C(C)=C/C(=O)O)C(C)(C)CCC1 [ATRA, all-trans retinoic acid]
effect on inflammatory cytokines, including IL-6 and TNF-α: lowering inflammatory cytokines
